Results taken from patent publication US20240383882A1 (Ecstasy LLC, priority 2020, published 2024).
Counter-ions that a name gives are not always drawn. Like-named read-outs stand apart in the source and are kept apart here.

Test system: male C57BL/6 mice
Test: 55° C. warm-water tail-flick test (antinociception)
Type: in vivo
Conditions: Mus musculus
How it was run: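 Mice with baseline tail-flick latency within 2 s at 55° C received compound s.c. and were retested at 30, 60, 90 and 120 min. % antinociception = 100×(test−control latency)/(20−control latency); ED50 in mg/kg.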

[1] = half maximal effective dose in mice, using one of: warm water tail-flick test, spared nerve injury, chronic constriction injury, or Complete Freund's adjuvant induced inflammatory pain (not stated which per compound), read-out: Biological Activity (ED50)
[2] = sc, 0.5 h, compounds of Table I, s.c., 30 min, 55° C. water, configuration tested as in Table II, read-out: ED50 (mg/kg) at 30 min on C57BL/6 mice in Warm-water Tail-flick Test

Compound	ED50 [1] [mg/kg]	ED50 [2] [mg/kg]
COc1cccc(C(C)(C)N2CC[C@@](CCc3ccc(C#N)cc3)(C(N)=O)C2)c1 [Compound 148, (R)-3-(4-cyanophenethyl)-1-(2-(3-methoxyphenyl)propan-2-yl)pyrrolidine-3-carboxamide]	> 50	
COc1cccc(C(C)(C)N2CC[C@@](CCc3ccc(C#N)cc3)(C(N)=O)C2)n1 [Compound 159, (R)-3-(4-cyanophenethyl)-1-(2-(6-methoxypyridin-2-yl)propan-2-yl)pyrrolidine-3-carboxamide]	≤ 30	
CCOC(C(F)(F)F)(C(F)(F)F)[C@]1(CCc2ccc(C#N)cc2)CCN(C(C)(C)c2ccc(C)nc2)C1 [Compound 6, (R)-4-(2-(3-(2-ethoxy-1,1,1,3,3,3-hexafluoropropan-2-yl)-1-(2-(6-methylpyridin-3-yl)propan-2-yl)pyrrolidin-3-yl)ethyl) benzonitrile]	≤ 30	
CCOC[C@]1(CCc2ccccc2C#N)CCN(C(C)(C)c2ccccn2)C1 [Compound 130, (R)-2-(2-(3-(ethoxymethyl)-1-(2-(pyridin-2-yl)propan-2-yl)pyrrolidin-3-yl)ethyl) benzonitrile]	> 50	
CCOC(C)C1(CCc2cccs2)CCN(C(C)(C)c2ccc(C)nc2)C1 (single isomer, unassigned) [Compound 5]		≤ 30
CC(C)(c1ccccn1)N1CC[C@@](CCc2ccc3ccoc3c2)(c2nn[nH]n2)C1 [Compound 183, (R)-2-(2-(3-(2-(benzofuran-6-yl)ethyl)-3-(2H-tetrazol-5-yl)pyrrolidin-1-yl)propan-2-yl)pyridine]	> 50	
CC(C)(c1ccccn1)N1CC[C@@](CCc2ccc(C#N)cc2)(C(=O)Nc2ccc(F)cn2)C1 [Compound 207, (R)-3-(4-cyanophenethyl)-N-(5-fluoropyridin-2-yl)-1-(2-(pyridin-2-yl)propan-2-yl)pyrrolidine-3-carboxamide]	≤ 30	
CC(C)(c1ccccn1)N1CC[C@@](CCc2ccc(C#N)c(F)c2)(COCc2ccccc2)C1 [Compound 112, (R)-4-(2-(3-((benzyloxy)methyl)-1-(2-(pyridin-2-yl)propan-2-yl)pyrrolidin-3-yl)ethyl)-2-fluorobenzonitrile]	> 50	
COC[C@]1(CCc2ccc(C#N)cc2)CCN(C(C)(C)c2ccccn2)C1 [Compound 59]	> 50	
CC(C)(c1ccc(C(F)(F)F)nc1)N1CC[C@@](CCc2ccc(C#N)cc2)(C(C)(C)O)C1 [Compound 140, (R)-4-(2-(3-(2-hydroxypropan-2-yl)-1-(2-(6-(trifluoromethyl)pyridin-3-yl)propan-2-yl)pyrrolidin-3-yl)ethyl) benzonitrile]	> 50	
CC(C)(O)[C@@]1(CCc2ccc(C#N)cc2)CCN(C(c2ccc(F)cc2)c2cccnc2)C1 (single isomer, unassigned) [Compound 71]	> 50	
CNC(=O)[C@]1(CCc2ccc(C#N)cc2)CCN(C(C)(C)c2ccccn2)C1 [Compound 155, (R)-3-(4-cyanophenethyl)-N-methyl-1-(2-(pyridin-2-yl)propan-2-yl)pyrrolidine-3-carboxamide]	≤ 30	
CCOCC1(CCn2c(=O)n(CC(C)C)c3cc(F)c(F)cc32)CCN(C(C)(C)c2ccc(C)nc2)C1 (stereo not drawn) [Compound 100]		≤ 30
COc1ccc(CN2CC[C@@](CCc3ccc(C#N)cc3)(C(O)C(F)(F)F)C2)cn1 (single isomer, unassigned) [Compound 70]	> 50	
CCOC[C@]1(CCc2ccc(C#N)cc2)CCN(C(C)(C)c2ccccn2)C1 [Compound 132, (R)-4-(2-(3-(ethoxymethyl)-1-(2-(pyridin-2-yl)propan-2-yl)pyrrolidin-3-yl)ethyl) benzonitrile]	> 50	
CCOC[C@]1(CCc2ccc(S(C)(=O)=O)cc2)CCN(C(C)(C)c2ccc(Cl)cc2)C1 [Compound 221, (R)-1-(2-(4-chlorophenyl)propan-2-yl)-3-(ethoxymethyl)-3-(4-(methylsulfonyl)phenethyl) pyrrolidine]	> 50	
CC(C)(c1ccccn1)N1CC[C@](CO)(CCc2cnc(C(F)(F)F)nc2)C1 [Compound 190, (R)-(1-(2-(pyridin-2-yl)propan-2-yl)-3-(2-(2-(trifluoromethyl)pyrimidin-5-yl)ethyl)pyrrolidin-3-yl)methanol]	> 50	
CC(C)(c1ccccn1)N1CC[C@@](CCc2ccc(C#N)cc2)(C(=O)NC2(C(F)(F)F)COC2)C1 [Compound 206, (R)-3-(4-cyanophenethyl)-1-(2-(pyridin-2-yl)propan-2-yl)-N-(3-(trifluoromethyl)oxetan-3-yl)pyrrolidine-3-carboxamide]	≤ 30	
Cc1ccc(C(C)(C)N2CC[C@@](CCc3ccc(F)cc3)(CS(C)(=O)=O)C2)cn1 [Compound 16, (R)-5-(2-(3-(4-fluorophenethyl)-3-((methylsulfonyl)methyl)pyrrolidin-1-yl)propan-2-yl)-2-methylpyridine]	≤ 30	
CCOC(C(F)(F)F)(C(F)(F)F)[C@]1(CCc2ccc(C)cc2)CCN(C(C)(C)c2ccc(C)nc2)C1 [Compound 7, (R)-5-(2-(3-(2-ethoxy-1,1,1,3,3,3-hexafluoropropan-2-yl)-3-(4-methylphenethyl)pyrrolidin-1-yl)propan-2-yl)-2-methylpyridine]	> 50	
CC(C)(c1ccccn1)N1CC[C@@](CCc2ccc(C#N)cc2F)(COCc2ccccc2)C1 [Compound 109, (R)-4-(2-(3-((benzyloxy)methyl)-1-(2-(pyridin-2-yl)propan-2-yl)pyrrolidin-3-yl)ethyl)-3-fluorobenzonitrile]	> 50	
CCOCC1(CCn2cnc3cnccc32)CCN(C(C)(C)c2ccc(C)nc2)C1 (stereo not drawn) [Compound 91, 1-(2-(3-(ethoxymethyl)-1-(2-(6-methylpyridin-3-yl)propan-2-yl)pyrrolidin-3-yl)ethyl)-1H-imidazo[4,5-c]pyridine citrate]		≤ 30
CCOC[C@]1(CCc2ccc(F)cc2)CCN(Cc2cnc(OC)cc2C#N)C1 [Compound 2, (R)-5-((3-(ethoxymethyl)-3-(4-fluorophenethyl)pyrrolidin-1-yl)methyl)-2-methoxy-isonicotino nitrile]	≤ 30	
COc1cccc(C(C)(C)N2CC[C@@](CCc3ccc(C#N)cc3)(C(=O)O)C2)c1 [Compound 143, (R)-3-(4-cyanophenethyl)-1-(2-(3-methoxyphenyl)propan-2-yl)pyrrolidine-3-carboxylic acid]	> 50	
CC(C)(c1ccc(C(F)(F)F)nc1)N1CC[C@@](CCc2ccc(C#N)cc2)(COCC(F)(F)F)C1 [Compound 28, (R)-4-(2-(3-((2,2,2-trifluoroethoxy)methyl)-1-(2-(6-(trifluoromethyl)pyridin-3-yl)propan-2-yl)pyrrolidin-3-yl)ethyl) benzonitrile]	> 50	
CCC(C)(c1ccc(C)nc1)N1CCC(CCc2cccs2)(C2OCCc3ccccc32)C1 (single isomer, unassigned) [Compound 89, 5-(2-((R or S)-3-((S or R)-isochroman-1-yl)-3-(2-(thiophen-2-yl)ethyl)pyrrolidin-1-yl)butan-2-yl)-2-methylpyridine citrate]		≤ 30
CCOC(C(F)(F)F)(C(F)(F)F)[C@]1(CCc2ccc(F)cc2)CCN(Cc2cccnc2)C1 [Compound 14, (R)-3-((3-(2-ethoxy-1,1,1,3,3,3-hexafluoropropan-2-yl)-3-(4-fluorophenethyl)pyrrolidin-1-yl)methyl)pyridine]	> 50	
